According to US20110190127A1, “NOVEL HERBICIDES” (SYNGENTA CROP PROTECTION, INC., priority 2008, published 2011):

How the values were obtained:
Format in all cases: in vivo
[1] = system: Setaria faberi (SETFA); test: Pre-emergence herbicidal activity, glasshouse pot test; details: Rate 500 g/ha; sprayed after one day cultivation, evaluated 20 days later; 100=total damage to plant, 0=no damage to plant
Procedure: (§1) Monocotyledonous and dicotyledonous test plants were sown in standard soil in pots. After cultivation for one day (pre-emergence) or after 10 days cultivation (post-emergence) under controlled conditions in a glasshouse, the plants were sprayed with an aqueous spray solution derived from the formulation of the technical active ingredient in 0.6 ml acetone and 45 ml formulation solution containing 10.6% Emulsogen EL (Registry number 61791-12-6), 42.2% N-methyl pyrrolidone, 42.2% dipropylene glycol monomethyl ether (Registry number 34590-94-8) and 0.2% X-77 (Registry number 11097-66-8). The test plants were then grown in a greenhouse under optimum conditions until, 15 days later for post-emergence and 20 days for pre-emergence, the test was evaluated (100=total damage to plant; 0=no damage to plant). Test Plants: Alopecurus myosuroides (ALOMY), Avena fatua (AVEFA), Lolium perenne (LOLPE), Setaria faberi (SETFA), Digitaria sanguinalis (DIGSA), Echinochloa crus-galli (ECHCG)

[2] = system: Alopecurus myosuroides (ALOMY); test: as above; details: Rate 500 g/ha; sprayed after one day cultivation, evaluated 20 days later; 100=total damage to plant, 0=no damage to plant
Procedure: as §1

[3] = system: Echinochloa crus-galli (ECHCG); test: as above; details: Rate 500 g/ha; sprayed after one day cultivation, evaluated 20 days later; 100=total damage to plant, 0=no damage to plant
Procedure: as §1

[4] = system: Digitaria sanguinalis (DIGSA); test: as above; details: Rate 500 g/ha; sprayed after one day cultivation, evaluated 20 days later; 100=total damage to plant, 0=no damage to plant
Procedure: as §1

[5] = system: Avena fatua (AVEFA); test: as above; details: Rate 500 g/ha; sprayed after one day cultivation, evaluated 20 days later; 100=total damage to plant, 0=no damage to plant
Procedure: as §1

[6] = system: Lolium perenne (LOLPE); test: as above; details: Rate 500 g/ha; sprayed after one day cultivation, evaluated 20 days later; 100=total damage to plant, 0=no damage to plant
Procedure: as §1

[7] = system: Setaria faberi (SETFA); test: Post-emergence herbicidal activity, glasshouse pot test; details: Rate 500 g/ha; sprayed after 10 days cultivation, evaluated 15 days later; 100=total damage to plant, 0=no damage to plant
Procedure: as §1

[8] = system: Alopecurus myosuroides (ALOMY); test: as above; details: Rate 500 g/ha; sprayed after 10 days cultivation, evaluated 15 days later; 100=total damage to plant, 0=no damage to plant
Procedure: as §1

[9] = system: Echinochloa crus-galli (ECHCG); test: as above; details: Rate 500 g/ha; sprayed after 10 days cultivation, evaluated 15 days later; 100=total damage to plant, 0=no damage to plant
Procedure: as §1

[10] = system: Digitaria sanguinalis (DIGSA); test: as above; details: Rate 500 g/ha; sprayed after 10 days cultivation, evaluated 15 days later; 100=total damage to plant, 0=no damage to plant
Procedure: as §1

[11] = system: Avena fatua (AVEFA); test: as above; details: Rate 500 g/ha; sprayed after 10 days cultivation, evaluated 15 days later; 100=total damage to plant, 0=no damage to plant
Procedure: as §1

[12] = system: Lolium perenne (LOLPE); test: as above; details: Rate 500 g/ha; sprayed after 10 days cultivation, evaluated 15 days later; 100=total damage to plant, 0=no damage to plant
Procedure: as §1

SMILES	Pre-Emergence Activity SETFA [1]	Pre-Emergence Activity ALOMY [2]	Pre-Emergence Activity ECHCG [3]	Pre-Emergence Activity DIGSA [4]	Pre-Emergence Activity AVEFA [5]	Pre-Emergence Activity LOLPE [6]	Post-Emergence Activity SETFA [7]	Post-Emergence Activity ALOMY [8]	Post-Emergence Activity ECHCG [9]	Post-Emergence Activity DIGSA [10]	Post-Emergence Activity AVEFA [11]	Post-Emergence Activity LOLPE [12]
CCc1ccc(-c2ccc(Cl)cc2Cl)cc1C1=C(SC)C(C)(C)OC(C)(C)C1=O [Compound A2]	10	0	20	20	0	20	10	0	20	0	0	0
CCc1ccc(-c2ccc(Cl)cc2Cl)cc1C1=C(Cl)C(C)(C)OC(C)(C)C1=O [Compound A1]	0	10	0	70	0	20	60	40	100	100	50	60
